The record followed here is patent publication US11512079B2, “Heterocycle substituted pyridine derivative antifungal agents” (Amplyx Pharmaceuticals, Inc., priority 2017, dated 2022).

Holding throughout (format): cell-based
The subject of one experiment is Cryptococcus gattii. Put plainly: In vitro antifungal assay (Example IX), microdilution broth, MIC. Particulars: minimum inhibitory concentration (≥50% inhibition), 35° C., 72 h (Cryptococcus), RPMI1640. In outline: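 Broth microdilution in RPMI1640 with 2.5×10^3 cells/mL inoculum; final compound concentrations were 2–0.0019 μg/mL, with 1% DMSO. Cryptococcus plates were incubated at 35 °C for 72 h, and growth was read at 600 nm to give the MIC.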
For orientation: In broth dilution the organism is exposed to a series of concentrations in liquid medium.

Experiment [1] concerns Aspergillus fumigatus MYA3626. Put plainly: In vitro antifungal assay (Example IX), microdilution broth, MEC. The note with it: minimum effective concentration (shortening of hyphae), 35° C., 40-48 h, RPMI1640. In outline:
(§1)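 Spore suspensions of A. fumigatus and R. pusillus adjusted to 1-2×10^4 spores/mL in RPMI1640 and exposed to compound dilutions prepared in DMSO, by broth microdilution. MEC taken as the lowest concentration shortening hyphae versus DMSO control wells, read as for echinocandins.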

In experiment [2] the test system is Rhizomucor pusillus 46342. Described as above. Particulars: minimum effective concentration (shortening of hyphae), 35° C., 40-48 h, RPMI1640. Summed up:
as §1

Experiment [3] concerns Cryptococcus neoformans H99. Put plainly: In vitro antifungal assay (Example IX), microdilution broth, MIC. The note with it: minimum inhibitory concentration (≥50% inhibition), 35° C., 72 h, RPMI1640. In outline: (§2)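 CLSI broth microdilution in RPMI1640 with 2.5×10^3 cells/mL and final compound concentrations of 2-0.0019 μg/mL (1% DMSO). C. albicans 90028 plates were incubated at 35° C. for 40-48 h and C. neoformans H99 for 72 h. MIC was read as minimum inhibitory concentration, verified at 600 nm.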

Another experiment deals with Candida albicans 90028. Described as above. Particulars: minimum inhibitory concentration (≥50% inhibition), 35° C., 40-48 h, RPMI1640. Summed up: as §2

Converted amounts (≈) assume the structure as drawn. Bounds are passed on as bounds.

By MIC is commonly meant the lowest concentration found to suppress growth. A high value points to a less susceptible organism. In general, minimal effective concentration refers to the smallest amount tested that counted as effective. A high value points to weaker potency. For `Nc1ccc(-c2cc(Cc3ccc(OCc4ccccc4)cc3)no2)c(N)n1` [compound 132, 3-(3-(4-(benzyloxy)benzyl)isoxazol-5-yl)pyridine-2,6-diamine], the MIC (in the experiment on Cryptococcus gattii; in experiment [3]; with Candida albicans 90028) was 0.01 to 0.1 µg/mL (≈ 0.0269 to 0.269 µM) each time. For the same molecule, the minimal effective concentration in experiment [1] is not above 0.01 µg/mL; in experiment [2], 0.1 to 1 µg/mL.
With `Nc1ccc(-c2cc(Cc3ccc(Oc4cccc(F)n4)cc3)no2)c(N)n1` [compound 134, 3-(3-(4-((6-fluoropyridin-2-yl)oxy)benzyl)isoxazol-5-yl)pyridine-2,6-diamine], the minimal inhibitory concentration (MIC) with Cryptococcus gattii lay within 0.01 to 0.1 µg/mL (≈ 0.0265 to 0.265 µM); in experiment [3], 0.01 to 0.1 µg/mL (≈ 0.0265 to 0.265 µM); against Candida albicans 90028, 0.1 to 1 µg/mL (≈ 0.265 to 2.65 µM). The minimal effective concentration in experiment [1] and in experiment [2] was 0.1 to 1 µg/mL throughout.
On to `CC(C)=CCOc1ccc(Cc2cc(-c3ccc(N)nc3N)on2)cc1` [compound 135, 3-(3-(4-((3-methylbut-2-en-1-yl)oxy)benzyl)isoxazol-5-yl)pyridine-2,6-diamine], for which the figures for the minimum inhibitory concentration (MIC) (in the experiment with Cryptococcus gattii; in experiment [3]; with Candida albicans 90028) were 0.1 to 1 µg/mL (≈ 0.285 to 2.85 µM), 0.01 to 0.1 µg/mL (≈ 0.0285 to 0.285 µM) and 0.1 to 1 µg/mL (≈ 0.285 to 2.85 µM), respectively. The minimal effective concentration in experiment [1] lay within 0.01 to 0.1 µg/mL; in experiment [2], 0.1 to 1 µg/mL.
Consider `Nc1ccc(-c2cc(Cc3ccc(CNc4ccccc4)cc3)no2)c(N)n1` [compound 136, 3-(3-(4-((phenylamino)methyl)benzyl)isoxazol-5-yl)pyridine-2,6-diamine], for which the minimum inhibitory concentration (MIC) (against Cryptococcus gattii; in experiment [3]; in the experiment on Candida albicans 90028) was 0.1 to 1 µg/mL (≈ 0.269 to 2.69 µM) in each case. The minimal effective concentration in experiment [1] and in experiment [2] was 0.01 to 0.1 µg/mL throughout.
For `Nc1ncccc1-c1cc(Cc2ccc(COc3cccc(F)n3)cc2)no1` [compound 137, 3-(3-(4-(((6-fluoropyridin-2-yl)oxy)methyl)benzyl)isoxazol-5-yl)pyridin-2-amine], the MIC with Cryptococcus gattii was in the range of 0.01 to 0.1 µg/mL (≈ 0.0266 to 0.266 µM); in experiment [3], 0.1 to 1 µg/mL (≈ 0.266 to 2.66 µM); in the experiment on Candida albicans 90028 it was 0.01 to 0.1 µg/mL (≈ 0.0266 to 0.266 µM). The minimal effective concentration in experiment [1] is 0.01 to 0.1 µg/mL; in experiment [2], more than 1 µg/mL.
Turning to `Nc1ncccc1-c1cc(Cc2ccc(Sc3ccccc3)nc2)no1` [compound 186, 3-(3-((6-(phenylthio)pyridin-3-yl)methyl)isoxazol-5-yl)pyridin-2-amine], the MIC in the experiment with Cryptococcus gattii was in the range of 0.01 to 0.1 µg/mL (≈ 0.0277 to 0.277 µM); in experiment [3] it was 0.1 to 1 µg/mL (≈ 0.277 to 2.77 µM); in the experiment on Candida albicans 90028, 0.01 to 0.1 µg/mL (≈ 0.0277 to 0.277 µM). The minimal effective concentration in experiment [1] is 0.01 to 0.1 µg/mL; in experiment [2], more than 1 µg/mL.
For the molecule `Nc1ncccc1-c1cc(Cc2ccc(OCc3ccc(F)cc3)nc2)no1` [compound 187, 3-(3-((6-((4-fluorobenzyl)oxy)pyridin-3-yl)methyl)isoxazol-5-yl)pyridin-2-amine], the results for the MIC (with Cryptococcus gattii; in experiment [3]; with Candida albicans 90028) were 0.01 to 0.1 µg/mL (≈ 0.0266 to 0.266 µM), 0.1 to 1 µg/mL (≈ 0.266 to 2.66 µM) and 0.1 to 1 µg/mL (≈ 0.266 to 2.66 µM), respectively. The minimal effective concentration in experiment [1] and in experiment [2] was 0.1 to 1 µg/mL throughout.
Turning to `Nc1ncccc1-c1cc(Cc2ccc(N3CCC3c3ccccc3)nc2)no1` (centres unmarked) [compound 188, 3-(3-((6-(2-phenylazetidin-1-yl)pyridin-3-yl)methyl)isoxazol-5-yl)pyridin-2-amine], the minimal inhibitory concentration (MIC) (in the experiment on Cryptococcus gattii; in experiment [3]; against Candida albicans 90028) was more than 1 µg/mL throughout. In addition, the minimal effective concentration in experiment [1] is more than 1 µg/mL; in experiment [2] it was 0.1 to 1 µg/mL.
As for `Nc1ncccc1-c1cc(Cc2ccc(COc3cc(F)ccc3F)cc2)no1` [compound 189, 3-(3-(4-((2,5-difluorophenoxy)methyl)benzyl)isoxazol-5-yl)pyridin-2-amine], the MIC in the experiment on Cryptococcus gattii fell in the range of 0.1 to 1 µg/mL (≈ 0.254 to 2.54 µM); in experiment [3] it was 0.01 to 0.1 µg/mL (≈ 0.0254 to 0.254 µM); with Candida albicans 90028, 0.01 to 0.1 µg/mL (≈ 0.0254 to 0.254 µM). Moreover, the minimal effective concentration in experiment [1] is 0.01 to 0.1 µg/mL; in experiment [2], more than 1 µg/mL.
Turning to `Nc1ncccc1-c1cc(Cc2ccc(COc3cc(F)cc(F)c3F)cc2)no1` [compound 190, 3-(3-(4-((2,3,5-trifluorophenoxy)methyl)benzyl)isoxazol-5-yl)pyridin-2-amine], the minimum inhibitory concentration (MIC) (with Cryptococcus gattii; in experiment [3]; in the experiment with Candida albicans 90028) was 0.1 to 1 µg/mL (≈ 0.243 to 2.43 µM) throughout. Further, the minimal effective concentration was 0.1 to 1 µg/mL in experiment [1] and more than 1 µg/mL in experiment [2].
For `Nc1ncccc1-c1cc(Cc2ccc(C(=O)c3ccccc3)cc2)no1` [compound 191, (4-((5-(2-aminopyridin-3-yl)isoxazol-3-yl)methyl)phenyl)(phenyl)methanone], the MIC (against Cryptococcus gattii; in experiment [3]; with Candida albicans 90028) was 0.1 to 1 µg/mL (≈ 0.281 to 2.81 µM) each time. Further, the minimal effective concentration in experiment [1] was 0.01 to 0.1 µg/mL; in experiment [2], 0.1 to 1 µg/mL.
With `Nc1ncccc1-c1cc(Cc2ccc(CNc3ccc(F)c(F)c3F)cc2)no1` [compound 193, 3-(3-(4-(((2,3,4-trifluorophenyl)amino)methyl)benzyl)isoxazol-5-yl)pyridin-2-amine], the MIC (against Cryptococcus gattii; in experiment [3]; in the experiment with Candida albicans 90028) was 0.1 to 1 µg/mL (≈ 0.244 to 2.44 µM) each time. In addition, the minimal effective concentration in experiment [1] was 0.01 to 0.1 µg/mL; in experiment [2] it was 0.1 to 1 µg/mL.
As for `Nc1ncccc1-c1cc(Cc2ccc(OCc3ccnc(Br)c3)nc2)no1` [compound 195, 3-(3-((6-((2-bromopyridin-4-yl)methoxy)pyridin-3-yl)methyl)isoxazol-5-yl)pyridin-2-amine], the MIC in the experiment with Cryptococcus gattii fell in the range of 0.01 to 0.1 µg/mL (≈ 0.0228 to 0.228 µM); in experiment [3], 0.01 to 0.1 µg/mL (≈ 0.0228 to 0.228 µM); in the experiment on Candida albicans 90028, 0.1 to 1 µg/mL (≈ 0.228 to 2.28 µM). The minimal effective concentration in experiment [1] was 0.1 to 1 µg/mL; in experiment [2], more than 1 µg/mL.
In the case of `Nc1ncccc1-c1cc(Cc2ccc(CNc3cc(F)ccc3F)cc2)no1` [compound 196, 3-(3-(4-(((2,5-difluorophenyl)amino)methyl)benzyl)isoxazol-5-yl)pyridin-2-amine], the MIC against Cryptococcus gattii lay in the range of 0.1 to 1 µg/mL (≈ 0.255 to 2.55 µM); in experiment [3], 0.01 to 0.1 µg/mL (≈ 0.0255 to 0.255 µM); in the experiment with Candida albicans 90028, 0.01 to 0.1 µg/mL (≈ 0.0255 to 0.255 µM). For the same molecule, the minimal effective concentration in experiment [1] and in experiment [2] was 0.1 to 1 µg/mL throughout.
Turning to `COc1c(F)cc(F)cc1NCc1ccc(Cc2cc(-c3cccnc3N)on2)cc1` [compound 198, 3-(3-(4-(((3,5-difluoro-2-methoxyphenyl)amino)methyl)benzyl)isoxazol-5-yl)pyridin-2-amine], the MIC with Cryptococcus gattii was more than 1 µg/mL; in experiment [3] it was 0.1 to 1 µg/mL (≈ 0.237 to 2.37 µM); in the experiment with Candida albicans 90028, 0.1 to 1 µg/mL (≈ 0.237 to 2.37 µM). For the same molecule, the minimal effective concentration in experiment [1] was more than 1 µg/mL; in experiment [2], 0.1 to 1 µg/mL.
As for `Nc1ncccc1-c1cc(Cc2ccc(Cn3cncn3)cc2)no1` [compound 199, 3-(3-(4-((1H-1,2,4-triazol-1-yl)methyl)benzyl)isoxazol-5-yl)pyridin-2-amine], the minimal inhibitory concentration (MIC) (in the experiment on Cryptococcus gattii; in experiment [3]; against Candida albicans 90028) was more than 1 µg/mL in each case. In addition, the minimal effective concentration in experiment [1] and in experiment [2] was more than 1 µg/mL in each case.
In the case of `Nc1ncccc1-c1cc(Cc2ccc(Cn3cnnc3)cc2)no1` [compound 200, 3-(3-(4-((4H-1,2,4-triazol-4-yl)methyl)benzyl)isoxazol-5-yl)pyridin-2-amine], the minimal inhibitory concentration (MIC) (against Cryptococcus gattii; in experiment [3]; in the experiment on Candida albicans 90028) was more than 1 µg/mL each time. For the same molecule, the minimal effective concentration in experiment [1] and in experiment [2] was more than 1 µg/mL each time.
As for `COc1cc(F)cc(NCc2ccc(Cc3cc(-c4cccnc4N)on3)cc2)c1` [compound 201, 3-(3-(4-(((3-fluoro-5-methoxyphenyl)amino)methyl)benzyl)isoxazol-5-yl)pyridin-2-amine], the minimum inhibitory concentration (MIC) was more than 1 µg/mL with Cryptococcus gattii, 0.1 to 1 µg/mL (≈ 0.247 to 2.47 µM) in experiment [3] and 0.1 to 1 µg/mL (≈ 0.247 to 2.47 µM) against Candida albicans 90028. Also, the figures for the minimal effective concentration in experiment [1] and in experiment [2] were 0.1 to 1 µg/mL and more than 1 µg/mL, respectively.
Regarding `Nc1ncccc1-c1cc(Cc2ccc(OCCn3cncn3)nc2)no1` [compound 202, 3-(3-((6-(2-(1H-1,2,4-triazol-1-yl)ethoxy)pyridin-3-yl)methyl)isoxazol-5-yl)pyridin-2-amine], the MIC (in the experiment with Cryptococcus gattii; in experiment [3]; with Candida albicans 90028) was more than 1 µg/mL throughout. Moreover, the minimal effective concentration in experiment [1] and in experiment [2] was more than 1 µg/mL throughout.
Take `Nc1ncccc1-c1cc(Cc2ccc(-c3ccccn3)cc2)no1` [compound 203, 3-(3-(4-(pyridin-2-yl)benzyl)isoxazol-5-yl)pyridin-2-amine]: the values for the MIC (against Cryptococcus gattii; in experiment [3]; in the experiment on Candida albicans 90028) were 0.1 to 1 µg/mL (≈ 0.305 to 3.05 µM), 0.1 to 1 µg/mL (≈ 0.305 to 3.05 µM) and more than 1 µg/mL, respectively. Also, the minimal effective concentration in experiment [1] and in experiment [2] was more than 1 µg/mL in each case.
Regarding `Nc1ncccc1-c1cc(Cc2ccc(-c3ccncc3)cc2)no1` [compound 204, 3-(3-(4-(pyridin-4-yl)benzyl)isoxazol-5-yl)pyridin-2-amine], the minimal inhibitory concentration (MIC) (against Cryptococcus gattii; in experiment [3]; with Candida albicans 90028) was more than 1 µg/mL each time. Also, the minimal effective concentration in experiment [1] and in experiment [2] was more than 1 µg/mL throughout.
With `Nc1ncccc1-c1cc(Cc2ccc(-c3ccc(F)cc3)nc2)no1` [compound 205, 3-(3-((6-(4-fluorophenyl)pyridin-3-yl)methyl)isoxazol-5-yl)pyridin-2-amine], the minimal inhibitory concentration (MIC) was more than 1 µg/mL against Cryptococcus gattii, 0.1 to 1 µg/mL (≈ 0.289 to 2.89 µM) in experiment [3] and 0.1 to 1 µg/mL (≈ 0.289 to 2.89 µM) with Candida albicans 90028. Also, the values for the minimal effective concentration in experiment [1] and in experiment [2] were more than 1 µg/mL and 0.1 to 1 µg/mL, respectively.
